Measured values taken from patent US11180483B2, “Substituted reverse pyrimidine Bmi-1 inhibitors” (PTC Therapeutics, Inc., priority 2012, dated 2021).

System: Bmi-1
Experiment: Sandwich ELISA Assay (Bmi-1 ELISA) in HT-1080 cells
Assay type: cell-based
Experimental: Cell Seeding and Compound Treatment (Day 1):
HT-1080 cells were seeded at 8000 cells/well (50 μL) in 96-well tissue culture plates. After the cells became adherent (3-4 hours), 2× diluted stocks of test compounds in 50 μL DMEM containing 1% DMSO (final DMSO concentration was 0.5%) were added and the plates were incubated at 37° C. under 5% CO2 for 40-48 hours.
ELISA Plate First Antibody Preparation (Day 2):
The First Antibody (Millipore Mouse, monoclonal to mouse Bmi-1, clone F6, catalog #05-637) diluted to 2 μg/mL in PBS was added (100 μL) to each well of a Nunc MaxiSorp 96-well ELISA plate. The plate was covered with a plate seal and allowed to stand overnight.
Cell Lysate Preparation (Day 3):
Fresh 1× Lysis buffer was prepared on the day of the assay as follows: 1 mM EDTA, 150 mM NaCl, 0.5% Triton-X 100, 10 mM NaF, 20 mM B-Glycerophosphate, 1 mM DTT (in PBS, pH 7.2-7.4) and 1× HALT protease inhibitor cocktail (Pierce #78410).
The 1× Lysis Buffer (40 μL) was added to each well and the plate was shaken for 5-10 minutes on an orbital shaker to allow cell lysis, then diluent (1% BSA in PBS in 0.5% NP40) (100 μL) was added to each well.
A standard curve was prepared at the following Bmi-1 concentrations: 8000, 4000, 2000, 1000, 500, 250, 125, 0 pg/mL The Bmi-1 Recombinant Protein Standard (Novus Biologicals PCGF4 Recombinant Protein (P01), catalog #H00000648-P01) used to prepare the standard curve was stored at −80° C. On first thaw, the Bmi-1 Recombinant Protein Standard was diluted to […] in Blocking Buffer (1% BSA in PBS; BSA: Fisher Scientific Catalog #1600-100). Aliquots were taken and refrozen at −80° C. The aliquots may be kept at 4° C. and reused after first thaw, but only within 1-2 weeks. The Bmi-1 Recombinant Protein Standard contains a GST-fusion tag that appears around 70 Kda on Western Blot.
The prepared ELISA plate was washed 3× with Wash Buffer (0.05% Tween-20 in PBS). The final wash was removed from the plate and the plate was blotted dry. Blocking Buffer (300 μL) (1% BSA in PBS) was added to each well. The plate was covered with a plate seal and incubated at room temperature for 1 hour. The blocked plate was washed 3× with Wash Buffer, then the final wash was removed and the plate was blotted dry. The previously prepared samples and standards were added (100 μL/well) and the plate was covered with a plate seal and incubated at 4° C. overnight.
The prepared ELISA plate was removed from 4° C., incubated at room temperature for 30 minutes, then washed and blotted dry as previously described for Day 3. The Second Antibody (Cell Signaling Rabbit anti-Bmi-1, Cat #2830) diluted to 1:600 in Blocking Buffer was added (100 μL) to each well, except as needed for background control wells. The plate was covered with a plate seal and incubated for 1.5 hrs at room temperature.
The ELISA plate was washed and blotted dry as previously described. The Third Antibody (Cell Signaling HRP conjugated anti-rabbit IgG (CellSignaling, Cat #:7074) diluted to 1:300 in Blocking Buffer was added (100 μL) to each well, except as needed for background control wells. The plate was incubated for 1 hr at room temperature.
The plate was washed and blotted dry as previously described, then prepared TMB substrate (TMB substrate kit, Pierce catalog #34021) (prepared by mixing kit reagents 1:1) (100 μL) was added per well. The plate was incubated for 20-30 minutes at room temperature in the dark, then Stop Solution (2 M sulfuric acid in water) (50 μL) was added per well. The plates were read at OD450 (experimental) and OD570 (reference).

Row | SMILES | EC50 [nM]
1 | COc1ccc(Nc2ccnc(-n3c(C)nc4ccccc43)n2)cc1 [Cpd 1, N-(4-methoxyphenyl)-2-(2-methyl-1H-benzimidazol-1-yl)pyrimidin-4-amine] | 10 to 100
2 | Cc1nc2ccccn2c1-c1nccc(Nc2ccc3c(c2)OCCO3)n1 [Cpd 2, N-(2,3-dihydro-1,4-benzodioxin-6-yl)-2-(2-methylimidazo[1,2-a]pyridin-3-yl)pyrimidin-4-amine] | 100 to 3000
3 | Cc1nc2ccccn2c1-c1nccc(Nc2ccc(C(F)(F)F)cc2)n1 [Cpd 3, 2-(2-methylimidazo[1,2-a]pyridin-3-yl)-N-[4-(trifluoromethyl)phenyl]pyrimidin-4-amine] | 10 to 100
4 | COc1ccc(Nc2ccnc(-c3c(C)nc4ccccn34)n2)cc1 [Cpd 4, N-(4-methoxyphenyl)-2-(2-methylimidazo[1,2-a]pyridin-3-yl)pyrimidin-4-amine] | 10 to 100
5 | Cc1nc2ccccn2c1-c1nccc(Nc2ccc(Cl)cc2)n1 [Cpd 5, N-(4-chlorophenyl)-2-(2-methylimidazo[1,2-a]pyridin-3-yl)pyrimidin-4-amine] | 100 to 3000
6 | Cc1nc2ccccn2c1-c1nccc(Nc2ccccc2)n1 [Cpd 6, 2-(2-methylimidazo[1,2-a]pyridin-3-yl)-N-phenylpyrimidin-4-amine] | 10 to 100
7 | FC(F)(F)c1ccc(Nc2ccnc(-c3c(C(F)(F)F)nc4ccccn34)n2)cc1 [Cpd 7, 2-[2-(trifluoromethyl)imidazo[1,2-a]pyridin-3-yl]-N-[4-(trifluoromethyl)phenyl]pyrimidin-4-amine] | 100 to 3000
8 | Cc1ccc(Nc2ccnc(-c3c(C(F)(F)F)nc4ccccn34)n2)cc1 [Cpd 9, N-(4-methylphenyl)-2-[2-(trifluoromethyl)imidazo[1,2-a]pyridin-3-yl]pyrimidin-4-amine] | 1 to 10
9 | FC(F)(F)c1nc2ccccn2c1-c1nccc(Nc2ccc(Br)cc2)n1 [Cpd 10, N-(4-bromophenyl)-2-[2-(trifluoromethyl)imidazo[1,2-a]pyridin-3-yl]pyrimidin-4-amine] | 10 to 100
10 | Fc1ccc2nc(-c3ccccc3)c(-c3nccc(Nc4ccc(Br)cc4)n3)n2c1 [Cpd 26, N-(4-bromophenyl)-2-(6-fluoro-2-phenylimidazo[1,2-a]pyridin-3-yl)pyrimidin-4-amine] | 100 to 3000
11 | Cc1ccc(Nc2ccnc(-c3c(-c4ccccc4)nc4ccc(F)cn34)n2)cc1 [Cpd 27, 2-(6-fluoro-2-phenylimidazo[1,2-a]pyridin-3-yl)-N-(4-methylphenyl)pyrimidin-4-amine] | 100 to 3000
12 | FC(F)(F)c1nc2ccccn2c1-c1nccc(Nc2ccc3c(c2)OCO3)n1 [Cpd 28, N-(1,3-benzodioxol-5-yl)-2-[2-(trifluoromethyl)imidazo[1,2-a]pyridin-3-yl]pyrimidin-4-amine] | 100 to 3000
13 | FC(F)(F)c1nc2ccccn2c1-c1nccc(Nc2ccc3c(c2)OCCO3)n1 [Cpd 29, N-(2,3-dihydro-1,4-benzodioxin-6-yl)-2-[2-(trifluoromethyl)imidazo[1,2-a]pyridin-3-yl]pyrimidin-4-amine] | 10 to 100

Second part, the compound after the results:

Row | EC50 [nM] | SMILES
14 | 100 to 3000 | FC(F)(F)c1nc2ccccn2c1-c1nccc(Nc2ccc(Cl)cc2)n1 [Cpd 8, N-(4-chlorophenyl)-2-[2-(trifluoromethyl)imidazo[1,2-a]pyridin-3-yl]pyrimidin-4-amine]
15 | 100 to 3000 | FC(F)Oc1ccc(Nc2ccnc(-c3c(C(F)(F)F)nc4ccccn34)n2)cc1 [Cpd 11, N-[4-(difluoromethoxy)phenyl]-2-[2-(trifluoromethyl)imidazo[1,2-a]pyridin-3-yl]pyrimidin-4-amine]
16 | 10 to 100 | COc1ccc(Nc2ccnc(-c3c(C(F)(F)F)nc4ccccn34)n2)cc1 [Cpd 12, N-(4-methoxyphenyl)-2-[2-(trifluoromethyl)imidazo[1,2-a]pyridin-3-yl]pyrimidin-4-amine]
17 | 100 to 3000 | FC(F)(F)c1ccc(Nc2ccnc(-c3c(C(F)(F)F)nc4ccc(Cl)cn34)n2)cc1 [Cpd 13, 2-[6-chloro-2-(trifluoromethyl)imidazo[1,2-a]pyridin-3-yl]-N-[4-(trifluoromethyl)phenyl]pyrimidin-4-amine]
18 | 100 to 3000 | FC(F)(F)Oc1ccc(Nc2ccnc(-c3c(C(F)(F)F)nc4ccc(Cl)cn34)n2)cc1 [Cpd 14, 2-[6-chloro-2-(trifluoromethyl)imidazo[1,2-a]pyridin-3-yl]-N-[4-(trifluoromethoxy)phenyl]pyrimidin-4-amine]
19 | 10 to 100 | FC(F)(F)c1nc2ccc(Cl)cn2c1-c1nccc(Nc2ccc(Br)cc2)n1 [Cpd 15, N-(4-bromophenyl)-2-[6-chloro-2-(trifluoromethyl)imidazo[1,2-a]pyridin-3-yl]pyrimidin-4-amine]
20 | 10 to 100 | FC(F)Oc1ccc(Nc2ccnc(-c3c(C(F)(F)F)nc4ccc(Cl)cn34)n2)cc1 [Cpd 16, 2-[6-chloro-2-(trifluoromethyl)imidazo[1,2-a]pyridin-3-yl]-N-[4-(difluoromethoxy)phenyl]pyrimidin-4-amine]
21 | 100 to 3000 | FC(F)(F)c1nc2ccc(Cl)cn2c1-c1nccc(Nc2ccc(Cl)cc2)n1 [Cpd 17, N-(4-chlorophenyl)-2-[6-chloro-2-(trifluoromethyl)imidazo[1,2-a]pyridin-3-yl]pyrimidin-4-amine]
22 | 100 to 3000 | Cc1nc2ccc(C(F)(F)F)cn2c1-c1nccc(Nc2ccc(C(F)(F)F)cc2)n1 [Cpd 18, 2-[2-methyl-6-(trifluoromethyl)imidazo[1,2-a]pyridin-3-yl]-N-[4-(trifluoromethyl)phenyl]pyrimidin-4-amine]
23 | 100 to 3000 | Cc1nc2ccc(C(F)(F)F)cn2c1-c1nccc(Nc2ccc(Br)cc2)n1 [Cpd 19, N-(4-bromophenyl)-2-[2-methyl-6-(trifluoromethyl)imidazo[1,2-a]pyridin-3-yl]pyrimidin-4-amine]
24 | 100 to 3000 | Cc1ccc(Nc2ccnc(-c3c(C)nc4ccc(C(F)(F)F)cn34)n2)cc1 [Cpd 20, N-(4-methylphenyl)-2-[2-methyl-6-(trifluoromethyl)imidazo[1,2-a]pyridin-3-yl]pyrimidin-4-amine]
25 | 1 to 10 | Cc1ccc(Nc2ccnc(-c3c(C(F)(F)F)nc4ccc(F)cn34)n2)cc1 [Cpd 21, 2-[6-fluoro-2-(trifluoromethyl)imidazo[1,2-a]pyridin-3-yl]-N-(4-methylphenyl)pyrimidin-4-amine]
26 | 10 to 100 | COc1ccc(Nc2ccnc(-c3c(C(F)(F)F)nc4ccc(F)cn34)n2)cc1 [Cpd 22, 2-[6-fluoro-2-(trifluoromethyl)imidazo[1,2-a]pyridin-3-yl]-N-(4-methoxyphenyl)pyrimidin-4-amine]
27 | 100 to 3000 | COc1ccc(Nc2ccnc(-c3c(C(F)(F)F)n(C)c4ccc(Cl)cc34)n2)cc1 [Cpd 23, 2-[5-chloro-1-methyl-2-(trifluoromethyl)-1H-indol-3-yl]-N-(4-methoxyphenyl)pyrimidin-4-amine]
28 | 100 to 3000 | Cn1c(C(F)(F)F)c(-c2nccc(Nc3ccc(OC(F)F)cc3)n2)c2cc(Cl)ccc21 [Cpd 24, 2-[5-chloro-1-methyl-2-(trifluoromethyl)-1H-indol-3-yl]-N-[4-(difluoromethoxy)phenyl]pyrimidin-4-amine]
29 | 100 to 3000 | Cn1c(C(F)(F)F)c(-c2nccc(Nc3ccc(Br)cc3)n2)c2cc(Cl)ccc21 [Cpd 25, N-(4-bromophenyl)-2-[5-chloro-1-methyl-2-(trifluoromethyl)-1H-indol-3-yl]pyrimidin-4-amine]
